The test has as its target T1, human TLR9 (Homo sapiens, UniProt Q9NR96).
T1 construct: host or cells: HEK293 (HEK-Blue hTLR9)
T1 sequence (Q9NR96 26-1032): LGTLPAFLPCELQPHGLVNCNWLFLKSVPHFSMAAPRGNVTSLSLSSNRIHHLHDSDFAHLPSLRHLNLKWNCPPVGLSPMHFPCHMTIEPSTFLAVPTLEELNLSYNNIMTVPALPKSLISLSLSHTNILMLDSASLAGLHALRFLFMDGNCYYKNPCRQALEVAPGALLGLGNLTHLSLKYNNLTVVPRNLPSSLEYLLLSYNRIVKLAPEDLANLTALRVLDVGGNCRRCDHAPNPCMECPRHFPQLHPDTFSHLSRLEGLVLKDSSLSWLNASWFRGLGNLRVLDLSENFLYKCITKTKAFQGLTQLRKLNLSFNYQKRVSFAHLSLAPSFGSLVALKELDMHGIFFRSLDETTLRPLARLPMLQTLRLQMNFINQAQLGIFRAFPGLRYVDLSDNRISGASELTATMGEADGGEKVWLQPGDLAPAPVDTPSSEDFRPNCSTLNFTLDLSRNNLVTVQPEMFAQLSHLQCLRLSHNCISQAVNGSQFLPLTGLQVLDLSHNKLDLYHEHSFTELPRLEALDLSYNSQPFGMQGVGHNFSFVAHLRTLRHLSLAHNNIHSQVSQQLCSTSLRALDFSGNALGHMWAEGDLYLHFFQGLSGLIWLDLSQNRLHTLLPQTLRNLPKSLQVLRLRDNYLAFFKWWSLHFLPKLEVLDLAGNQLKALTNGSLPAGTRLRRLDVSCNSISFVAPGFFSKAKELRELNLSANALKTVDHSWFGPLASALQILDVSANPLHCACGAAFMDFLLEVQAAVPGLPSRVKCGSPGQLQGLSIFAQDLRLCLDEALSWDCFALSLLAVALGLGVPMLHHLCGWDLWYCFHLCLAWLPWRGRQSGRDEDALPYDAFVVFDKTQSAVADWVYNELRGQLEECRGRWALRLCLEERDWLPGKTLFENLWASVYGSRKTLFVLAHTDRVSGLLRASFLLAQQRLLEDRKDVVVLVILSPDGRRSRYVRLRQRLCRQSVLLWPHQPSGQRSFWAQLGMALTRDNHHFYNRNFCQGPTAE
Put plainly: HEK293-Blue-hTLR-9 cells assay. The following applies: HEK293-Blue-hTLR9 cells, ODN2006 stimulation, 20 hrs, SEAP reporter; read-out: HEK/hTLR9 IC50. The test is classed as cell-based. From the text:
A stable HEK293-Blue-hTLR-9 cell line was purchased from InvivoGen (Cat. #: hkb-htlr9, San Diego, California, USA). These cells were originally designed for studying the stimulation of human TLR9 by monitoring the activation of NF-κB. A SEAP (secreted embryonic alkaline phosphatase) reporter gene was placed under the control of the IFN-β minimal promoter fused to five NF-κB and AP-1-binding sites. The SEAP was induced by activating NF-κB and AP-1 via stimulating HEK-Blue hTLR9 cells with TLR9 ligands. Therefore the reporter expression was declined by TLR9 antagonist under the stimulation of a ligand, such as ODN2006 (Cat. #: tlrl-2006-1, Invivogen, San Diego, California, USA), for incubation of 20 hrs. The cell culture supernatant SEAP reporter activity was determined using QUANTI-Blue™ kit (Cat. #: rep-qb1, Invivogen, San Diego, California, USA) at a wavelength of 640 nm, a detection medium that turns purple or blue in the presence of alkaline phosphatase.
HEK293-Blue-hTLR9 cells were incubated at a density of 250,000˜450,000 cells/mL in a volume of 170 μL in a 96-well plate in Dulbecco's Modified Eagle's medium (DMEM) containing 4.5 g/L glucose, 50 U/mL penicillin, […], 2 mM L-glutamine, 10% (v/v) heat-inactivated fetal bovine serum with addition of 20 μL test compound in a serial dilution in the presence of final DMSO at 1% and 10 μL of 20 uM ODN2006 in above DMEM, perform incubation under 37° C. in a CO2 incubator for 20 hrs. Then 20 μL of the supernatant from each well was incubated with 180 μL Quanti-blue substrate solution at 37° C. for 2 h and the absorbance was read at 620˜655 nm using a spectrophotometer. The signaling pathway that TLR9 activation leads to downstream NF-κB activation has been widely accepted, and therefore similar reporter assay was modified for evaluating TLR9 antagonist.

Structures are written as SMILES.

`C[C@@H]1CN(c2ccc(C#N)c3ncccc23)C[C@@H]2C[C@H](c3ccc(N4CCNCC4)nc3)CCN21` (stereo in doubt) [Example 2, 5-[(4R,8R)-4-methyl-8-(6-piperazin-1-yl-3-pyridyl)-1,3,4,6,7,8,9,9a-octahydropyrido[1,2-a]pyrazin-2-yl]quinoline-8-carbonitrile]: the IC50 came to 0.081 µM.

`C[C@@H]1CN(c2ccc(C#N)c3ncccc23)C[C@@H]2CC(c3ccc(C[C@@H]4CNCCO4)cc3)CCN21` (stereo in doubt) [Example 25, 5-[(4R,8R,9aS)-4-methyl-8-[4-[[(2R)-morpholin-2-yl]methyl]phenyl]-1,3,4,6,7,8,9,9a-octahydropyrido[1,2-a]pyrazin-2-yl]quinoline-8-carbonitrile]: the IC50 was 0.078 µM. Then `C[C@@H]1CN(c2ccc(C#N)c3ncccc23)C[C@@H]2C[C@H](NCc3ccc(N4CCNCC4)cc3)CCN21` [Example 1, 5-[(4R,8R,9aS)-4-methyl-8-[(4-piperazin-1-ylphenyl)methylamino]-1,3,4,6,7,8,9,9a-octahydropyrido[1,2-a]pyrazin-2-yl]quinoline-8-carbonitrile], with less than 0.032 µM.

Regarding `C[C@@H]1CN(c2ccc(C#N)c3ncccc23)CC2C[C@H](c3ccc(N4CCNCC4)cc3)CCN21` (stereo partly drawn) [Example 3, 5-[(4R,8R)-4-methyl-8-(4-piperazin-1-ylphenyl)-1,3,4,6,7,8,9,9a-octahydropyrido[1,2-a]pyrazin-2-yl]quinoline-8-carbonitrile], the IC50 is 0.092 µM.

As to `C[C@@H]1CN(c2ccc(C#N)c3ncccc23)C[C@@H]2C[C@H](c3ccc(N4CCNCC4)nc3)CCN21` [Example 4, 5-[(4R,8R,9aS)-4-methyl-8-(6-piperazin-1-yl-3-pyridyl)-1,3,4,6,7,8,9,9a-octahydropyrido[1,2-a]pyrazin-2-yl]quinoline-8-carbonitrile], the IC50 was 0.086 µM. To `CO[C@H]1CN(c2ccc([C@@H]3CCN4[C@@H](C3)CN(c3ccc(C#N)c5ncccc35)C[C@H]4C)cn2)C[C@@H]1N` [Example 6, 5-[(4R,8R,9aS)-8-[6-[(3S,4S)-3-amino-4-methoxy-pyrrolidin-1-yl]-3-pyridyl]-4-methyl-1,3,4,6,7,8,9,9a-octahydropyrido[1,2-a]pyrazin-2-yl]quinoline-8-carbonitrile] belongs 0.087 µM; to `C[C@@H]1CN(c2ccc(C#N)c3ncccc23)C[C@@H]2C[C@H](c3ccc(N4CC(N)C4)nc3)CCN21` [Example 7, 5-[(4R,8R,9aS)-8-[6-(3-aminoazetidin-1-yl)-3-pyridyl]-4-methyl-1,3,4,6,7,8,9,9a-octahydropyrido[1,2-a]pyrazin-2-yl]quinoline-8-carbonitrile], 0.184 µM; to `C[C@@H]1CN(c2ccc(C#N)c3ncccc23)C[C@@H]2C[C@H](N3CC(c4ccc(N5CCNCC5)cc4)C3)CCN21` [Example 9, 5-[(4R,8R,9aS)-4-methyl-8-[3-(4-piperazin-1-ylphenyl)azetidin-1-yl]-1,3,4,6,7,8,9,9a-octahydropyrido[1,2-a]pyrazin-2-yl]quinoline-8-carbonitrile], less than 0.032 µM. To `C[C@@H]1CN(c2ccc(C#N)c3ncccc23)C[C@@H]2C[C@@H](Oc3ccc(N4CCNCC4)cn3)CCN21` [Example 11, 5-[(4R,8S,9aS)-4-methyl-8-[(5-piperazin-1-yl-2-pyridyl)oxy]-1,3,4,6,7,8,9,9a-octahydropyrido[1,2-a]pyrazin-2-yl]quinoline-8-carbonitrile] belongs 0.09 µM; to `CO[C@H]1CN(c2ccc([C@@H]3CCN4[C@@H](C3)CN(c3ccc(C#N)c5ncccc35)C[C@H]4C)cn2)C[C@H]1N` [Example 12, 5-[(4R,8R,9aS)-8-[6-[(3R,4S)-3-amino-4-methoxy-pyrrolidin-1-yl]-3-pyridyl]-4-methyl-1,3,4,6,7,8,9,9a-octahydropyrido[1,2-a]pyrazin-2-yl]quinoline-8-carbonitrile], 0.066 µM; to `CO[C@@H]1CN(c2ccc([C@@H]3CCN4[C@@H](C3)CN(c3ccc(C#N)c5ncccc35)C[C@H]4C)cn2)C[C@@H]1N` [Example 13, 5-[(4R,8R,9aS)-8-[6-[(3S,4R)-3-amino-4-methoxy-pyrrolidin-1-yl]-3-pyridyl]-4-methyl-1,3,4,6,7,8,9,9a-octahydropyrido[1,2-a]pyrazin-2-yl]quinoline-8-carbonitrile], 0.094 µM. Consider `CO[C@@H]1CN(c2ccc([C@@H]3CCN4[C@@H](C3)CN(c3ccc(C#N)c5ncccc35)C[C@H]4C)cn2)C[C@H]1N` [Example 14, 5-[(4R,8R,9aS)-8-[6-[(3R,4R)-3-amino-4-methoxy-pyrrolidin-1-yl]-3-pyridyl]-4-methyl-1,3,4,6,7,8,9,9a-octahydropyrido[1,2-a]pyrazin-2-yl]quinoline-8-carbonitrile], for which the IC50 stood at 0.078 µM. Consider `C[C@@H]1CN(c2ccc(C#N)c3ncccc23)C[C@H]2C[C@H](c3ccc(N4CCNCC4)nc3)CCN21` [Example 15, 5-[(4R,8R,9aR)-4-methyl-8-(6-piperazin-1-yl-3-pyridyl)-1,3,4,6,7,8,9,9a-octahydropyrido[1,2-a]pyrazin-2-yl]quinoline-8-carbonitrile], for which the IC50 was 0.084 µM. To `C[C@@H]1CN(c2ccc(C#N)c3ncccc23)C[C@@H]2C[C@@H](Oc3ccc(N4CCNCC4)nc3)CCN21` [Example 16, 5-[(4R,8S,9aS)-4-methyl-8-[(6-piperazin-1-yl-3-pyridyl)oxy]-1,3,4,6,7,8,9,9a-octahydropyrido[1,2-a]pyrazin-2-yl]quinoline-8-carbonitrile] belongs 0.037 µM; to `C[C@@H]1CN(c2ccc(C#N)c3ncccc23)C[C@@H]2C[C@@H](NCc3ccc(N4CCNCC4)cc3)CCN21` [Example 17, 5-[(4R,8S,9aS)-4-methyl-8-[(4-piperazin-1-ylphenyl)methylamino]-1,3,4,6,7,8,9,9a-octahydropyrido[1,2-a]pyrazin-2-yl]quinoline-8-carbonitrile], less than 0.032 µM; to `C[C@@H]1CN(c2ccc(C#N)c3ncccc23)C[C@@H]2C[C@@H](Oc3cnc(N4CCNCC4)nc3)CCN21` [Example 18, 5-[(4R,8S,9aS)-4-methyl-8-(2-piperazin-1-ylpyrimidin-5-yl)oxy-1,3,4,6,7,8,9,9a-octahydropyrido[1,2-a]pyrazin-2-yl]quinoline-8-carbonitrile], 0.06 µM.

With `C[C@@H]1CN(c2ccc(C#N)c3ncccc23)C[C@@H]2C[C@H](c3ccc(N4C[C@@H](N)[C@@H](F)C4)nc3)CCN21` [Example 19, 5-[(4R,8R,9aS)-8-[6-[(3R,4S)-3-amino-4-fluoro-pyrrolidin-1-yl]-3-pyridyl]-4-methyl-1,3,4,6,7,8,9,9a-octahydropyrido[1,2-a]pyrazin-2-yl]quinoline-8-carbonitrile], the IC50 stood at 0.082 µM. Then `C[C@@H]1CN(c2ccc(C#N)c3ncccc23)C[C@@H]2C[C@H](Nc3ccc([C@H]4CNCCO4)cc3)CCN21` [Example 20, 5-[(4R,8R,9aS)-4-methyl-8-[4-[(2S)-morpholin-2-yl]anilino]-1,3,4,6,7,8,9,9a-octahydropyrido[1,2-a]pyrazin-2-yl]quinoline-8-carbonitrile], with 0.05 µM.

The record behind these values is US12421229B2, “Hydropyrido[1,2-α]pyrazine compounds for the treatment of autoimmune disease” (Hoffmann-La Roche Inc., priority 2019, dated 2025).
